{
  "source": "patent US7067633B2",
  "about": "“Targeting cellular entry, cell survival, and pathogenicity by dynein light chain 1/PIN in human cells” (Board of Regents, The University of Texas System, priority 2003, dated 2006)",
  "key": {"[1]": {"tested_on": "SKBR-3 cells", "experiment": "Pak1-mediated macropinocytosis, vesicle formation by confocal microscopy", "assay_type": "cell-based, human", "conditions": "cotransfected with GFP-Pak1", "procedure": "FIG. 3—Requirement of DLC1/PIN in Pak1 mediated macropinocytosis. SKBR-3 cells were cotransfected with RFP-DLC1/PIN and GFP-Pak1 (upper panel), RFP-DLC1/PIN-S88A, and GFP-Pak1 (middle panel) and RFP-DLC1-1-66, and GFP-Pak1 (lower panel). Vesicle formation and localization of GFP and RFP proteins were analyzed by confocal microscopy. Ten randomly selected fields were analyzed for each condition. The experiment was repeated twice with similar results. Quantitation of vesicles formation was done using the following scoring system. −, cells containing 0–9 vesicles; +, cells containing 10–20 vesicles; and ++, cells containing >20 vesicles.\nRequirement of DLC1/PIN in Pak1 mediated macropinocytosis. […] The inventors have used the fluorescein isothiocyanate (FITC)-labeled Dextran as a marker of endocytosis using a well-established dextran beads uptake assay (Dharmawardhane et al., 2000). […]\nSK-BR3 cells were cotransfected with RFP-DLC1 and GFP-Pak1 (upper panel), RFP-DLC1-S88A and GFP-Pak1 (middle panel), and RFP-DLC8-1-66 and GFP-Pak1 (bottom panel). Vesicle formation and localization of GFP and RFP proteins were analyzed by confocal microscopy. Ten randomly selected fields were analyzed for each condition. […]"}, "[2]": {"tested_on": "NIH3T3 cells", "experiment": "UV-induced apoptosis, Lamin A/C nuclear integrity scoring", "assay_type": "cell-based, murine", "procedure": "FIGS. 5A–5C—Requirement of DLC1/PIN and Pak1 interaction in cell proliferation and survival. FIG. 5A: Equal number of cells ZR75R stable cells expressing DLC1/PIN wild type or DLC1/PIN^del88-89 mutant were plated and cell proliferation was determined by trypsinizing and counting cells using a coulter counter. Each colne was plated in triplicate and experiment was repeated twice with similar results. FIG. 5B: Cell cycle progression of DLC1/PIN wild type or mutant clones was analyzed by FACS analysis. […] For example, a smooth nuclear membrane was scored as nonapoptotic, as opposed to membrane blebbing or rupture, which was scored as apoptotic. Nuclei committed to enter mitosis were not scored in either of these groups because they were easily identified for their specific “pulverized” pattern of Lamin A/C staining. Ten randomly selected fields were analyzed for each condition. […]\nDLC1/PIN regulation of cell growth and survival. […] After 10 h, apoptosis was quantitated by scoring the integrity of the nuclear membrane in cells expressing both RFP and myc tags to detect DLC/DLC1/PIN and Pak1 respectively (FIG. 5D)."}, "[3]": {"tested_on": "DLC1", "experiment": "DLC1 protein and mRNA expression", "assay_type": "cell-based, human", "conditions": "MCF-7 cells", "method": "MCF-7/Tam-sen, MCF-7/TAMR1 and Ishikawa cells were treated with E2 (10^−9M) or Tam (10^−9M) for 24 h, and cell lysates were assayed for DLC1 and Pak1 protein expression. […] FIG. 21C: Effect of different periods of E2 treatment and cycloheximide (CHX) and Actinomycin D (ACTD) treatment on the ability of E2 to upregulate DLC1 mRNA in MCF-7 cells."}, "[4]": {"tested_on": "DLC1/PIN", "experiment": "In vivo 32P-orthophosphate labeling and immunoprecipitation of T7-DLC1/PIN", "assay_type": "cell-based, human", "conditions": "MCF-7 cells, EGF treatment", "procedure": "FIGS. 2A–2G—MapDLC1/PINg of interaction domains of Pak1 and DLC1/PIN. FIG. 2A: Identification of Pak1 domains that interact with DLC1/PIN. GST-Pak1 fusion proteins containing wild-type (amino acids 1–545), kinase domain (amino acids 270–545), N-terminal domain (amino acids 1–132), PIX binding domain (amino acids 132–270), Nck-binding domain (amino acids 1–75), Cdc42/Rac-interacting (CRIB) domain (amino acids 52–132), and auto-inhibitory domain (amino acids 75–149) were incubated with in vitro translated DLC1/PIN (amino acids 1–89), and binding was analyzed by GST pull-down assay. FIG. 2B: Identification of the DLC1/PIN region that is involved in the binding of Pak1. GST-fusions of various lengths of DLC1/PIN were used in the GST pull-down assay using ^35S-labelled Pak1 (amino acids 1–545). FIGS. 2C–2G—Pak1 phosphorylation of DLC1/PIN. FIG. 2C: In vitro kinase assay using GST-DLC1/PIN as a substrate and purified bacterially expressed Pak1 as an enzyme. MBP was used as a positive control. FIG. 2D: ZR75R cells stably expressing T7-DLC1/PIN were labeled in vivo with ^32P-orthophosphate, serum starved, treated with EGF or HRG, and immunoprecipitated and phosphorylation status of DLC1/PIN was visualized by autoradiography. […] Cells were metabolically labeled with ^32P orthophosphate, treated with or without EGF (1 nM) and phosphorylation of T7-DLC1/PIN was analyzed by immunoprecipitation. […]"}, "[5]": {"tested_on": "DLC1-ER interaction", "experiment": "Coimmunoprecipitation of DLC1 with ER", "assay_type": "cell-based, human", "conditions": "growth factor stimulation", "procedure": "In vitro-translated ^35ER were incubated with GST-DLC1, and analyzed by SDS-PAGE and autoradiography. FIG. 13B: Identification of ER domains that interact with DLC1. GST-ER fusion proteins containing different deletion constructs were incubated with in vitro-translated 35S-DLC1 (aa 1-89), and binding was analyzed by GST pull-down assay. FIG. 13C: Mapping of the ER-binding region in DLC1. GST-fusions of various DLC1 deletion constructs were incubated with in vitro-translated ^35S-ER, and binding was analyzed by GST pull-down assay. […] Cell lysates from Ishikawa cells was immunoprecipitated (IP) with anti-ERá mAb and immunoblotted with anti-DLC1 or ER Abs. […] Cell lysates from MCF-7/TAM-sen or Ishikawa cells were treated with Tam (10^−9M) for 24 h, and IP with anti-ERá mAb and immunoblotted with anti-DLC1 or ER Abs. […] MCF-7/DLC1 cells were treated with or without Dox for 24 h and then treated with E2 (10^−9M) or Tam (10^−8M) for 24 h, and IP with anti-ERá mAb and immunoblotted with anti-DLC1 or ER Abs. FIG. 13G: Characterization of MCF-7 cells expressing T7-DLC1-Ser88A mutant under a tetracycline-inducible promoter. […] MCF-7/DLC1 and MCF-7/DLC1-Ser88A cells were treated with or without Dox for 24 h and cell lysates were IP with anti-ERá mAb and blotted with anti-DLC1, ERá and T7 Abs.\nTo this end, MCF-7 cells expressing a T7-DLC1 mutant in which Ser88 and amino acid 89 were deleted under a tet-inducible promoter (MCF-7/DLC1-1-87 mutant) were generated (FIG. 13G)."}, "[6]": {"tested_on": "MDA-MB231 cells", "experiment": "Vesicle formation and DLC1/PIN-Pak1 colocalization after growth factor stimulation", "assay_type": "cell-based, human", "conditions": "serum-starved cells, 20 min"}},
  "note": "Starred links: 1 amine or outer side, 2 acyl side, 3 side chain; linkers in the order of their positions; H or OH if unused. Positions of bridges follow the written chain, without caps; N, C: chain ends. Non-standard residues stand in square brackets, D forms with d. Residues, ends and D or L forms follow the SMILES beside them. Chains are numbered I, II in the order given. Actinocin(9to1) = Cc1c2oc3c(C)ccc(C(=O)[*:1])c3nc-2c(C(=O)[*:2])c(N)c1=O; NMeV = CN[C@H](C(=O)O)C(C)C; Sar = CNCC(=O)O",
  "data": [
    {"compound": "S88A DLC1/PIN: DLC1/PIN mutant, serine 88 to alanine, lacking the Pak1 phosphorylation site", "values": [
      {"measurement": "Pak1-induced vesicle formation", "setting": "[1]", "result": "substantially interfered"},
      {"measurement": "UV-induced apoptosis substantially reduced", "setting": "[2]; 10 h after UV-irradiation", "result": "not"},
      {"measurement": "protection from UV-induced apoptosis by overexpression of active Pak1", "setting": "[2]; cotransfected with catalytically active Pak1", "result": "unable to protect"}
    ]},
    {"compound": "C[C@]12CC[C@@H]3c4ccc(O)cc4C[C@@H](CCCCCCCCC[S+]([O-])CCCC(F)(F)C(F)(F)F)[C@H]3[C@@H]1CC[C@@H]2O", "note": "(stereo partly drawn) [ICI 182,780]", "values": [
      {"measurement": "estrogen-induced DLC1 expression", "setting": "[3]", "result": "effectively blocked"}
    ]},
    {"compound": "Cc1c2oc3c(C)ccc(C(=O)N[C@@H]4C(=O)N[C@H](C(C)C)C(=O)N5CCC[C@H]5C(=O)N(C)CC(=O)N(C)[C@@H](C(C)C)C(=O)O[C@@H]4C)c3nc-2c(C(=O)N[C@@H]2C(=O)N[C@H](C(C)C)C(=O)N3CCC[C@H]3C(=O)N(C)CC(=O)N(C)[C@@H](C(C)C)C(=O)O[C@@H]2C)c(N)c1=O", "note": "[actinomycin D] (I: T[dV]P[Sar][NMeV] / II: T[dV]P[Sar][NMeV]; ester I:1-I:C, II:1-II:C; linker I:N-II:N via Actinocin(9to1))", "values": [
      {"measurement": "estrogen-induced DLC1 expression", "setting": "[3]", "result": "effectively blocked"}
    ]},
    {"compound": "EGF: epidermal growth factor, physiologic Pak1 activator", "values": [
      {"measurement": "DLC1/PIN phosphorylation", "setting": "[4]", "result": "stimulated DLC1/PIN phosphorylation"},
      {"measurement": "interaction of DLC1 with ER", "setting": "[5]; tamoxifen-resistant Ishikawa cells", "result": "promotes"},
      {"measurement": "interaction of DLC1 with ER", "setting": "[5]; tamoxifen-sensitive MCF-7 cells", "result": "not"},
      {"measurement": "vesicle-like structures with colocalization of DLC1/PIN and Pak1", "setting": "[6]", "result": "substantial enhancement of vesicle-like structures"}
    ]}
  ]
}
